Laboratory results from patent publication US12708607B2, “Thromboxane receptor antagonist formulations” (ATXA THERAPEUTICS LIMITED, priority 2020, dated 2026).
Read-outs that look alike come from different tables or passages of the source.

Key:
Su/Hx-induced PAH = settings: Mulvaney et al. 2020; cited from earlier work
MCT-induced PAH = settings: Mulvaney et al. 2020; cited from earlier work
[1] = system: TP (thromboxane A2 receptor); test: whole blood platelet aggregation ex vivo after oral dosing, U46619-induced; assay type: in vivo, cynomolgus monkey; settings: 100 mg/kg BID oral, Day 14; 1 μM U46619
Description: (§1) Whole blood platelet aggregation assays were performed ex vivo in blood samples taken from the NHPs (n=3) administered 100 mg/kg NTP42:KVA4, BID (200 mg/kg/day) for 14 days. In this type of platelet aggregation assay, a reduction in platelet numbers is indicative of platelet aggregation. Blood was collected prior to (pre-dose), and at 45 min- and 24 h-following the first daily dose, and platelet numbers determined in blood samples at baseline (untreated), and in blood samples incubated with drug vehicle, the thromboxane mimetic, U46619 or, as control, other platelet agonists (e.g., ADP, collagen, thrombin, ristocetin, epinephrine). Baseline platelet counts ranged from 120-190×10^3 platelets/μl.
(§2) Whole blood platelet aggregation assays were performed ex vivo in blood samples taken from the NHPs (n=3) administered 100 mg/kg NTP42:KVA4, BID (200 mg/kg/day) for 14 days. Blood was collected prior to (pre-dose), and at 45 min- and 24 h-following the first daily dose, and platelet numbers determined in blood samples at baseline (untreated), and in blood samples incubated with drug vehicle, the thromboxane mimetic, U46619 or, as control, 50 μM ADP. In this assay, a reduction in platelet numbers is indicative of platelet aggregation.

[2] = system: platelet aggregation induced by other platelet agonists; test: whole blood platelet aggregation ex vivo after oral dosing, other platelet agonists (e.g. 50 μM ADP); assay type: in vivo, cynomolgus monkey; settings: 100 mg/kg BID oral, Day 14
Description: as §1, §2

[3] = NTP42 levels in NHP plasma after repeat oral dosing; assay type: in vivo, cynomolgus monkey; settings: for Cmax at 14 days: cynomolgus monkey, plasma, oral, 14 days repeat dosing of NTP42:KVA4 at 200 mg/kg/day

NTP42 levels in NHP plasma 24 h post-dosing ([3]; 24 h post-dosing, 200 mg/kg/day for 14 days): still detectable | Cmax at 14 days ([3]; read-out: Cmax of NTP42 in NHP plasma): 13200 ng/mL | Cmax at 14 days ([3]; read-out: Cmax of NTP42 in NHP plasma, molar equivalent): 25 µM | NTP42 in NHP plasma prior to the first daily dose ([3]; pre-dose, Day 14): present
SMILES: CC(C)(C)NC(=O)NS(=O)(=O)c1cc(C#N)ccc1Oc1cccc(-c2ccc(OC(F)F)cc2)c1 [NTP42]
efficacy of non-formulated drug in Su/Hx-induced model of PAH (Su/Hx-induced PAH): has shown efficacy | efficacy of non-formulated drug in MCT-induced model of PAH (MCT-induced PAH): has shown efficacy | TXA2 (U46619)-induced / TP-mediated platelet aggregation ex vivo [1]: selectively inhibited | aggregation induced by other platelet agonists [2]: did not affect
